The supplement of paper PMC8617591

Columns and labels:
[1] = tested on: Mycobacterium tuberculosis Erdman (autoluminescent); experiment: GRinf, maximum normalised growth rate inhibition (three-drug combination) (unitless (-1 to 1)); higher = less effect (negative = killing)
Experimental: (§1)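 DiaMOND equipotent three-drug combination dose responses (10 doses, 1.5- or 2-fold spacing, centred on IC90) against autoluminescent M. tuberculosis Erdman in 8 in vitro models. Read-out is OD600, or luminescence for the intracellular and dormancy models, normalised to untreated wells. Hill-fit Einf, AUC25 and GRinf are potency metrics; FIC50 and FIC90 are total Loewe fractional inhibitory concentrations as log2 (negative = synergy).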

[2] = tested on: Mycobacterium tuberculosis Erdman (autoluminescent); experiment: AUC25, normalised area under dose response up to IC25 (three-drug combination) (fraction (0-1)); higher = more potent at low dose
Experimental: as §1

[3] = tested on: Mycobacterium tuberculosis Erdman (autoluminescent); experiment: total FIC90 (Loewe) at 90% inhibition, three-drug combination (log2); higher = more antagonistic
Experimental: as §1

[4] = tested on: Mycobacterium tuberculosis Erdman (autoluminescent); experiment: total FIC50 (Loewe) at 50% inhibition, three-drug combination (log2); higher = more antagonistic
Experimental: as §1

[5] = tested on: Mycobacterium tuberculosis Erdman (autoluminescent); experiment: Einf, fitted maximum growth inhibition of three-drug combination (fraction); higher = stronger maximal inhibition
Experimental: as §1

CC(C)/N=c1\cc2n(-c3ccc(Cl)cc3)c3ccccc3nc-2cc1Nc1ccc(Cl)cc1 [clofazimine] + O=[N+]([O-])c1cn2c(n1)OC[C@@H](OCc1ccc(OC(F)(F)F)cc1)C2 [pretomanid] + CO[C@H]1/C=C/O[C@@]2(C)Oc3c(C)c(O)c4c(O)c(c(/C=N/N5CCN(C)CC5)c(O)c4c3C2=O)NC(=O)/C(C)=C\C=C\[C@H](C)[C@H](O)[C@@H](C)[C@@H](O)[C@@H](C)[C@H](OC(C)=O)[C@@H]1C [rifampicin]
Details | AUC25, [2] | Einf, [5] | GRinf, [1] | total FIC50, [4] | total FIC90, [3]
in vitro model: acidic pH 5.7, time point: constant (~7 days, model-specific) | 0.113 | 0.916 | -0.179 | 0.218 | –
in vitro model: acidic pH 5.7, time point: terminal (~4-5 doublings, model-specific) | 0.073 | 0.989 | -0.161 | 0.575 | 0.276
in vitro model: intracellular J774, time point: constant = terminal | – | 0.992 | -0.685 | – | -0.529

Details | AUC25, [2] | Einf, [5] | GRinf, [1] | total FIC50, [4] | total FIC90, [3]
in vitro model: butyrate, time point: constant (~7 days, model-specific) | 0.104 | 0.936 | -0.134 | 0.432 | 0.0534
in vitro model: butyrate, time point: terminal (~4-5 doublings, model-specific) | 0.0947 | 0.977 | -0.128 | 0.197 | 0.399
in vitro model: cholesterol 0.05 mM, time point: constant (~7 days, model-specific) | 0.124 | 0.696 | -0.174 | 1.03 | –
in vitro model: cholesterol 0.05 mM, time point: terminal (~4-5 doublings, model-specific) | 0.0924 | 0.844 | 0.0526 | 1.18 | 0.826
in vitro model: cholesterol-high 0.2 mM, time point: constant (~7 days, model-specific) | 0.0944 | 0.891 | -0.242 | 1.29 | 1.16
in vitro model: cholesterol-high 0.2 mM, time point: terminal (~4-5 doublings, model-specific) | 0.0908 | 1 | -0.716 | 1.57 | 1.36
in vitro model: dormancy (butyrate + nitrate, low O2), time point: constant (~7 days, model-specific) | 0.0988 | 0.938 | 0.038 | -0.678 | -1.51
in vitro model: dormancy (butyrate + nitrate, low O2), time point: terminal (~4-5 doublings, model-specific) | 0.0571 | 0.993 | -0.337 | -0.503 | -0.477
in vitro model: standard 7H9 glycerol, time point: constant = terminal | 0.11 | 0.93 | 0.0153 | -0.349 | -0.0486
in vitro model: valerate, time point: constant (~7 days, model-specific) | 0.0751 | 0.857 | 0.0268 | 0.706 | –
in vitro model: valerate, time point: terminal (~4-5 doublings, model-specific) | 0.0551 | 0.929 | 0.0406 | 0.736 | 0.763

CC(C)/N=c1\cc2n(-c3ccc(Cl)cc3)c3ccccc3nc-2cc1Nc1ccc(Cl)cc1 [clofazimine] + O=[N+]([O-])c1cn2c(n1)OC[C@@H](OCc1ccc(OC(F)(F)F)cc1)C2 [pretomanid] + NC(=O)c1cnccn1 [pyrazinamide]
Details | AUC25, [2] | Einf, [5] | GRinf, [1] | total FIC50, [4] | total FIC90, [3]
in vitro model: acidic pH 5.7, time point: constant (~7 days, model-specific) | 0.116 | 0.799 | -0.189 | -0.0503 | –
in vitro model: acidic pH 5.7, time point: terminal (~4-5 doublings, model-specific) | 0.0855 | 0.963 | -0.286 | -0.211 | -0.383
in vitro model: intracellular J774, time point: constant = terminal | – | 1 | -0.589 | – | 0.069

Details | AUC25, [2] | Einf, [5] | GRinf, [1] | total FIC50, [4] | total FIC90, [3]
in vitro model: butyrate, time point: constant (~7 days, model-specific) | 0.117 | 0.927 | -0.101 | -0.205 | 1.93
in vitro model: butyrate, time point: terminal (~4-5 doublings, model-specific) | 0.0918 | 0.967 | -0.0731 | -0.348 | 0.119
in vitro model: cholesterol 0.05 mM, time point: constant (~7 days, model-specific) | 0.136 | 0.671 | -0.153 | – | –
in vitro model: cholesterol 0.05 mM, time point: terminal (~4-5 doublings, model-specific) | 0.108 | 0.917 | -0.206 | 1.04 | –
in vitro model: cholesterol-high 0.2 mM, time point: constant (~7 days, model-specific) | 0.0983 | 0.866 | -0.131 | 0.247 | –
in vitro model: cholesterol-high 0.2 mM, time point: terminal (~4-5 doublings, model-specific) | 0.0869 | 0.997 | -0.572 | 0.565 | 0.223
in vitro model: dormancy (butyrate + nitrate, low O2), time point: constant (~7 days, model-specific) | 0.0942 | 0.933 | 0.139 | -1.02 | -2
in vitro model: dormancy (butyrate + nitrate, low O2), time point: terminal (~4-5 doublings, model-specific) | 0.0486 | 0.989 | -0.2 | -0.553 | -0.326
in vitro model: standard 7H9 glycerol, time point: constant = terminal | 0.128 | 0.947 | -0.335 | -0.2 | –
in vitro model: valerate, time point: constant (~7 days, model-specific) | 0.125 | 0.874 | -0.0963 | 0.359 | –
in vitro model: valerate, time point: terminal (~4-5 doublings, model-specific) | 0.0562 | 0.928 | 0.0185 | 0.629 | 1.17

CC[C@@H](CO)NCCN[C@@H](CC)CO [ethambutol] + CC(=O)NC[C@H]1CN(c2ccc(N3CCOCC3)c(F)c2)C(=O)O1 [linezolid] + CO[C@H]1/C=C/O[C@@]2(C)Oc3c(C)c(O)c4c(O)c(c(/C=N/N5CCN(C6CCCC6)CC5)c(O)c4c3C2=O)NC(=O)/C(C)=C\C=C\[C@H](C)[C@H](O)[C@@H](C)[C@@H](O)[C@@H](C)[C@H](OC(C)=O)[C@@H]1C [rifapentine]
Details | AUC25, [2] | Einf, [5] | GRinf, [1] | total FIC50, [4] | total FIC90, [3]
in vitro model: acidic pH 5.7, time point: constant (~7 days, model-specific) | 0.0936 | 0.872 | -0.0867 | 0.452 | –
in vitro model: acidic pH 5.7, time point: terminal (~4-5 doublings, model-specific) | 0.0542 | 0.967 | -0.0664 | 1.01 | 0.595
in vitro model: intracellular J774, time point: constant = terminal | – | 0.962 | -0.261 | – | -1.64

Details | AUC25, [2] | Einf, [5] | GRinf, [1] | total FIC50, [4] | total FIC90, [3]
in vitro model: butyrate, time point: constant (~7 days, model-specific) | 0.0551 | 0.886 | 0.0937 | 0.371 | –
in vitro model: butyrate, time point: terminal (~4-5 doublings, model-specific) | 0.0436 | 0.94 | 0.0645 | 0.251 | -0.559
in vitro model: cholesterol 0.05 mM, time point: constant (~7 days, model-specific) | 0.146 | 0.726 | -0.109 | -0.662 | –
in vitro model: cholesterol 0.05 mM, time point: terminal (~4-5 doublings, model-specific) | 0.154 | 0.936 | -0.279 | -1.58 | –
in vitro model: cholesterol-high 0.2 mM, time point: constant (~7 days, model-specific) | 0.102 | 0.996 | -0.732 | 0.505 | –
in vitro model: cholesterol-high 0.2 mM, time point: terminal (~4-5 doublings, model-specific) | 0.103 | 1 | -0.843 | 0.495 | 1.02
in vitro model: dormancy (butyrate + nitrate, low O2), time point: constant (~7 days, model-specific) | 0.124 | 0.869 | 0.279 | 0.075 | –
in vitro model: dormancy (butyrate + nitrate, low O2), time point: terminal (~4-5 doublings, model-specific) | 0.131 | 0.996 | -0.349 | -0.164 | 1.09
in vitro model: standard 7H9 glycerol, time point: constant = terminal | 0.0503 | 0.887 | 0.155 | 0.486 | –
in vitro model: valerate, time point: constant (~7 days, model-specific) | 0.0575 | 0.828 | 0.0988 | 0.319 | –
in vitro model: valerate, time point: terminal (~4-5 doublings, model-specific) | 0.0307 | 0.917 | 0.0733 | 0.429 | –
